Data set [1] is described as follows: Dissociation constant, pKa of the compound. Type of data set: physicochemical.
Data set [2] in a line: Drug uptake in lysosomes of BPAEC at 1 uM after 30 mins by fluorescence microscopy. The data set is classed as ADME, Bos taurus, Lysosome. The following applies: cattle, 0.5 h.

On to `CCN(CC)c1ccc(C2=C3C=CC(CCC(=O)OC)=[N+]3[B-](F)(F)n3c(CCC(=O)OC)ccc32)cc1`, for which the pKa (in general, the pH at which an ionisable group is half protonated) in data set [1] is 3.2. Further, the Drug uptake entry in data set [2] is “Active”.

In data set [1], `CCN(CCCC(=O)OC)c1ccc(C2=C3C(C)=CC(C)=[N+]3[B-](F)(F)n3c(C)cc(C)c32)cc1` returned a pKa of 3.2. Besides, the Drug uptake result in data set [2] is “Active”.

In turn, `CCN(CC)c1ccc(C2=C3C(C)=CC(C)=[N+]3[B-](F)(F)n3c(C)cc(C)c32)cc1` yielded a pKa in data set [1] of 5.2. Besides, the Drug uptake result in data set [2] was “Active”.

Turning to `CC1=CC(C)=[N+]2C1=C(c1ccc(N(C)C)cc1)c1c(C)cc(C)n1[B-]2(F)F`, the pKa in data set [1] stood at 3.2. Moreover, the Drug uptake entry in data set [2] was “Active”.
